Measurements published in ChEMBL document CHEMBL1143240, “Inhibiting dihydrodipicolinate synthase across species: towards specificity for pathogens?” (Bioorg Med Chem Lett, 2008).
Activity calls are given as the source filed them. The rule behind the calls is not given here.

Tests used:
Escherichia coli [1] = test: Inhibition of Escherichia coli DHDPS at 20 mM
[2] = target: T1, Dihydrodipicolinate synthase (Bacillus anthracis) (UniProt A0A6L7H340); test: Inhibition of Bacillus anthracis DHDPS at 20 mM
T1 sequence (whole entry): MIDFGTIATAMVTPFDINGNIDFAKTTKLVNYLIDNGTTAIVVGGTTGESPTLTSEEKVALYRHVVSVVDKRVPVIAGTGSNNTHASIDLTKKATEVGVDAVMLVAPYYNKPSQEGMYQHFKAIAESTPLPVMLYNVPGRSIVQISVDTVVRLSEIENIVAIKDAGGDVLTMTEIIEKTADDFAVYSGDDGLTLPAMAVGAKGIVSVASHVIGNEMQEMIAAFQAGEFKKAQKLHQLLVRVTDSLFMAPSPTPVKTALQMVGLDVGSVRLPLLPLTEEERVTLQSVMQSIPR

[3] = target: 4-hydroxy-tetrahydrodipicolinate synthase (Mycobacterium tuberculosis) (UniProt P9WP25); test: Inhibition of Mycobacterium tuberculosis DHDPS at 20 mM
Staphylococcus aureus = test: Inhibition of methicillin-resistant Staphylococcus aureus DHDPS at 20 mM
Escherichia coli [4] = test: Inhibition of Escherichia coli NAL at 20 mM
[5] = Inhibition of Escherichia coli DHDPS
Escherichia coli [6] = test: Antibacterial activity against Escherichia coli at 20 uM relative to control; format: functional, organism-based

SMILES | inhibition (Escherichia coli [1]) [%] | inhibition [2] [%] | inhibition [3] [%] | inhibition (Staphylococcus aureus) [%] | inhibition (Escherichia coli [4]) [%] | Ki [5] [mM] | Activity (Escherichia coli [6])
COC(=O)[C@@H]1C[S+]([O-])C[C@@H](C(=O)OC)N1 (some centres undefined) | 0 | 7 | 0 | 7 | 7 | – | –
COC(=O)[C@@H]1C[S@+]([O-])C[C@H](C(=O)OC)N1 | 20 | 22 | 14 | 12 | 38 | – | –
CC(=O)C(=O)O [PYRUVATE] | – | – | – | – | – | 7 | –
COC(=O)[C@@H]1CS(=O)(=O)C[C@@H](C(=O)OC)N1 | 14 | 6 | 7 | 0 | 0 | – | –
COC(=O)c1cccc(C(=O)OC)n1 | 5 | 13 | 0 | 0 | 0 | – | –
O=C(O)c1cc(=O)cc(C(=O)O)[nH]1 | 74 | 0 | 73 | 83 | 27 | – | Active
N[C@@H](CC=O)C(=O)O | – | – | – | – | – | 14 | –
COC(=O)[C@@H]1CSC[C@H](C(=O)OC)N1 | 35 | 23 | 0 | 0 | 1 | – | –
COC(=O)[C@@H]1CCC[C@H](C(=O)OC)N1 | 92 | 99 | 24 | 58 | 18 | – | –
COC(=O)[C@@H]1CS(=O)(=O)C[C@H](C(=O)OC)N1 | 0 | 19 | 6 | 0 | 3 | – | inactive
COC(=O)[C@@H]1CSC[C@@H](C(=O)OC)N1 | 12 | 19 | 0 | 0 | 0 | – | –
COC(=O)c1cc(=O)cc(C(=O)OC)[nH]1 | 85 | 0 | 84 | 88 | 64 | – | –
COC(=O)[C@@H]1C[S@@+]([O-])C[C@H](C(=O)OC)N1 | 8 | 8 | 1 | 10 | 0 | – | –
O=C(O)c1cccc(C(=O)O)n1 | 76 | 80 | 75 | 67 | 1 | – | –
O=C(O)[C@@H]1CCC[C@H](C(=O)O)N1 | 49 | 73 | 43 | 51 | 21 | – | –
